Data on 1 substance can be found in patent US5461034A, “Osteogenic growth polypeptides identified from regenerating bone marrow” (Yissum Research Development Company of the Hebrew …, priority 1993, dated 1995).

This assay deals with ROS 17/2 cells. Put plainly: Anti-PDGF antibody neutralization in ROS 17/2 cells. It is filed as cell-based, rat. The settings on record: intermediate doses of HBMCM preparations. The method, then: Anti-PDGF antibody neutralization experiments were carried out with polyclonal antiserum prepared in rabbits against PDGF. PDGF or HBMCM-derived preparations were added to ROS 17/2 cells in the presence or absence of antibody and examined for effects on [^3 H]TdR incorporation.

Regarding PDGF, the “effect of polyclonal anti-PDGF antibodies on mitogenic effect” value is given as “inhibited PDGF-stimulated replication”.
